Here are results for four compounds from patent US20230024108A1, “ADENOSINE A2A RECEPTOR ANTAGONISTS” (Teon Therapeutics, Inc., priority 2019, published 2023).

The target of one test is T1, human A2A AdoR (Homo sapiens, UniProt P29274).
T1 construct: purchased PerkinElmer RBHA2AM400UA
The experiment in a line: Adenosine receptor binding assay, A2A ([3H]-CGS-21680). The note with it: membranes of HEK-293 cells expressing human A2A AdoR; read-out: hA2A IC50. In short, it runs like this:
(§1)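 Filtration binding on membranes: A2A in HEK-293 with 6 nM [3H]-CGS-21680, Tris pH 7.4, 2 h; A2B in HEK-293 with 8 nM [3H]-DPCPX, HEPES pH 7.0, 1 h; A1 in CHO-K1 with 1 nM [3H]-DPCPX, HEPES pH 7.4, 1 h; room temperature. 8-point dilutions; IC50 converted to Ki (Cheng–Prusoff).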

A further test deals with T2, A1AdoR (Homo sapiens, UniProt P30542).
T2 construct: purchased PerkinElmer ES-010-M400UA
T2 sequence (P30542 1-326): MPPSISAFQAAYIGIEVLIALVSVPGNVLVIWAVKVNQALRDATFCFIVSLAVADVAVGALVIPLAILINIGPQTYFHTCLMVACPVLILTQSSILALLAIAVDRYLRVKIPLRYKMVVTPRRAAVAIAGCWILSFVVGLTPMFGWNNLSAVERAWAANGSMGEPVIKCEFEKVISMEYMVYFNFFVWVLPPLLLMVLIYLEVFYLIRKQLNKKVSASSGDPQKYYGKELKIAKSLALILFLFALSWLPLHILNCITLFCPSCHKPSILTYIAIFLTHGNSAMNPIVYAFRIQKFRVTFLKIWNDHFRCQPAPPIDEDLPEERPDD
The experiment in a line: Adenosine receptor binding assay, A1 ([3H]-DPCPX). To be noted: ratio A1 vs A2A binding. In short, it runs like this:
as §1

A further test concerns phospho-CREB (pCREB). The experiment in a line: Human whole blood phospho-CREB (pCREB) assay / modulation of pCREB in human immune cells. To be noted: agonist (NECA or CGS-21680)-stimulated human blood cells. Format: cell-based. The method, then: Fresh human blood samples are derived from healthy volunteers and processed in heparin tubes. 67.5 ul of whole blood is aliquoted to each well in a 96-well plate and incubated at 37° C. for 30 min. Testing compounds are diluted with DMSO to make 8-point 3-fold serial dilution and 3.5 ul (20×) is added to each well. Cells are incubated with the compounds at 37° C. for 30 min. NECA (5 uM) is then added to each well and cells are incubated for 30 min at 37° C. Following the stimulation, cells are transferred to a 96-well deep well plates and fixed with 1 ml/well of lyse/fix buffer (1×) (BD Biosciences #558049) with vigorous shake at 37° C. for 10 min. Cells are centrifuged at 600 g for 6 min and washed twice with PBS, followed by addition of 800 ul/well Perm buffer III (BD Biosciences #558050). Cells are then pelleted at 600 g for 6 min, washed with FACS buffer (PBS+0.2% BSA+1 mM EDTA) and stained for 40 min at room temperature in the dark with an antibody cocktail containing PE mouse anti-human CD3 (BD Biosciences #555333, 1 ul/well), FITC mouse anti-human CD4 (BD Biosciences #5555346, 1 ul/well), PerCP-Cy™5.5 mouse anti-human CD8 (BD Biosciences #565310, 1 ul/well) and phospho-CREB (Ser133) (87G3) Rabbit mAb (Alexa Fluor® 647 Conjugate, CST #14001, 0.5 ul/well). Cells are then washed twice with FACS buffer and acquired on a flow cytometer (Sony Cell Sorter SH800). Data were analyzed using FlowJo version 9. The level of CREB phosphorylation from unstimulated cells (Low control: LC) and NECA-stimulated cells (High control: HC) are determined as mean fluorescent intensity (MFI) in stimulated condition/mean fluorescent intensity in unstimulated condition. % Inhibition is calculated as (MFI of HC-MFI of assay well)/(MFI of HC-MFI of LC)×100%. Data are analyzed and IC50s calculated using GraphPad Prism 5 and the model “log(inhibitor) vs. response—Variable slope”.
The A2A receptor is known to mediate CREB phosphorylation.
Venous blood from healthy volunteers, all of whom signed an informed consent approved by the Ethics Committee (FOR—UIC-BV-050-01-01 ICF HBS HD Version 5.0), was obtained via ImmuneHealth (Centre Hospitalier Universitaire Tivoli, La Louviere,
15 Belgium). Peripheral blood cells were treated with A2AR agonists CGS-21680 or NECA (Sigma-Aldrich, Diegem, Belgium), and a serial dilution of compounds disclosed herein (all used stock solutions at 10 mM in DMSO). All dilutions were prepared in RPMI1640 medium (with UltraGlutamine; Lonza, Venders, Belgium), and cells were incubated with compounds in a 37° C. humidified tissue culture incubator with 5% CO2.
After stimulation, cells were fixed and permeabilized, followed by intracellular staining using mouse anti-human pCREB antibodies (Clone J151-21; BD Biosciences) at room temperature. Data were acquired using an LSRFortessa flow cytometer (BD Biosciences) and analyzed using FlowJo software (FlowJo, LLC, Ashland, Oregon).

The next test addresses T3, human A2B AdoR (Homo sapiens, UniProt P29275).
T3 construct: purchased PerkinElmer ES-013-M400UA
T3 sequence (P29275 1-332): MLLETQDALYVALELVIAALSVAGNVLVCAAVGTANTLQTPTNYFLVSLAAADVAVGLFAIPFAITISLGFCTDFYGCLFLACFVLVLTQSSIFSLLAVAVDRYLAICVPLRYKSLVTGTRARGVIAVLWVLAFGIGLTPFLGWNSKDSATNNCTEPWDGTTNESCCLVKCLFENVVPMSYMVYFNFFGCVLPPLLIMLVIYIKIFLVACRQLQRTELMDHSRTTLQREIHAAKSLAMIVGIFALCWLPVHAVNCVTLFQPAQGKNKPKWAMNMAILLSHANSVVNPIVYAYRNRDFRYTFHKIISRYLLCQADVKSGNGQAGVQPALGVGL
The experiment in a line: Adenosine receptor binding assay, A2B ([3H]-DPCPX). The note with it: ratio A2B vs A2A binding. The method, then: Membranes prepared from CHO-K1 cells stably expressing Human AiAdoR (ES-010-M400UA), HEK-293 cells stably expressing human A2A AdoR (RBHA2AM400UA), HEK-293 cells stably expressing human A2B AdoR (ES-013-M400UA) and CHO-K1 cells stably expressing Human A3 AdoR (ES-012-M400UA) were purchased from PerkinElmer (Waltham, Mass., USA) and stored at −80° C. until use. Binding assays are performed using the radioligands. The final concentrations are as follows: [3H]-DPCPX (PerkinElmer, NET974001MC) at 1 nM for A1AdoR; [^3H]-CGS-21680 (PerkinElmer, NET1021250UC) at 6 nM for A2AAdoR, [3H]-DPCPX (PerkinElmer, NET974001MC) at 8 nM for A2BAdoR; [^3H]-HEMADO (ARC, Cat: ART1456) at 1 nM for A3AdoR. Testing compounds are diluted with DMSO to make 8-point 4-fold serial dilution. Nonspecific binding (Low control: LC) and total binding (High control: HC) are determined in the presence or absence of saturated cold ligand. Specific binding is calculated by subtracting nonspecific binding from total binding. All assays are performed in a final volume of 200 μl containing 1 μl of the test compound in DMSO, 100 μl of membrane preparation, and 99 μl of the radioligand in assay buffer (A1AdoR: 25 mM HEPES pH 7.4, 5 mM MgCl2, 1 mM CaCl2), 100 mM NaCl; A2AAdoR: 50 mM Tris HCl pH 7.4, 10 mM MgCl2, 1 mM EDTA; A2BAdoR: 50 mM HEPES pH 7.0, 5 mM MgCl2, 1 mM EDTA; A3AdoR: 25 HEPES pH 7.4, 10 mM MgCl2, 1 mM CaCl2), 0.5% BSA). The incubation is performed at room temperature with shaking at 300 rpm for 1 hour for A1AdoR, A2BAdoR and A3AdoR and 2 hours for A2AAdoR. After the incubation, the assay mixture is filtered through 96 GF/C filter plates (Perkin Elmer #6005174) using Perkin Elmer Filtermate Harvester, and then washed four times with ice-cold washing buffer (A1AdoR: 25 mM HEPES pH 7.4, 5 mM MgCl2, 1 mM CaCl2), 100 mM NaCl; A2AAdoR: 50 mM Tris HCl pH 7.4, 154 mM NaCl; A2BAdoR: 50 mM HEPES pH 6.5, 5 mM MgCl2, 1 mM EDTA, 0.2% BSA; A3AdoR: 50 mM Tris HCl pH 7.4). The filters are dried for 1 hour at 50° C. and [^3H] trapped on filter counted for radioactivity in Perkin Elmer Microscint 20 cocktail (#6013329) using Perkin Elmer MicroBeta2 Reader. The results are expressed as a percent inhibition of the control radioligand specific binding calculated using the following equation: % Inhibition=(1−(Assay well-Average_LC)/(Average_HC−Average_LC))×100%. Data are analyzed and IC50 is calculated using GraphPad Prism 5 and the model “log(inhibitor) vs. response—Variable slope”. The binding affinity of the compounds is determined by using the Cheng and Prusoff equation Ki=IC50/(1+[radioligand]/Kd).

Some results are limits rather than exact numbers.

T1 sequence (P29274 whole entry): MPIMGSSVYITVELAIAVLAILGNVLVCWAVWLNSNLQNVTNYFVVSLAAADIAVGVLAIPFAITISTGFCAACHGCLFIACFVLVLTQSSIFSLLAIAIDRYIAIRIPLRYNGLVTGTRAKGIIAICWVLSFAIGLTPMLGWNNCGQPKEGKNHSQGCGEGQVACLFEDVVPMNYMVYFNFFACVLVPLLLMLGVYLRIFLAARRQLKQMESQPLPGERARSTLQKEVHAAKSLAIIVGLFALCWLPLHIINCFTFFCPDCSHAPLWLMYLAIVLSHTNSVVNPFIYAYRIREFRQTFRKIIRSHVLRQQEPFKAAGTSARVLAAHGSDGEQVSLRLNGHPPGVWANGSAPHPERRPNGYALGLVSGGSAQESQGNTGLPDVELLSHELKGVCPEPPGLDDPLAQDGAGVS

Consider `Nc1nc2c(cc(C(=O)O)n2CCN2CCN(c3cc(-c4ncco4)ccc3F)CC2)c2nc(-c3ccccn3)nn12` [5-amino-7-(2-(4-(2-fluoro-5-(oxazol-2-yl)phenyl)piperazin-1-yl)ethyl)-2-(pyridin-2-yl)-7H-pyrrolo[3,2-e][1,2,4]triazolo[1,5-c]pyrimidine-8-carboxylic acid], for which the IC50 – broadly, the midpoint of a concentration-inhibition curve – on human A2A AdoR is at most 20 nM. Also, on A1AdoR, the “A1/A2A Selectivity” value is recorded as “b (greater than 100 but less than or equal to 1000)”. The EC50 (in general, the concentration giving half of the maximal effect) in the test with phospho-CREB (pCREB) is over 100 nM. Moreover, on human A2B AdoR, the “A2B/A2A Selectivity” value is given as “a (greater than 1000)”.

For the compound `Cc1c(C(=O)NC2CC2)n(CCN2CCN(c3cc(-c4ncco4)ccc3F)CC2)c2nc(N)n3nc(-c4ccccn4)nc3c12`, the half-maximal inhibitory concentration (IC50) at human A2A AdoR is at most 20 nM. For the same compound, the “A1/A2A Selectivity” value on A1AdoR is recorded as “a (greater than 1000)”. For the same compound, the EC50 in the test on phospho-CREB (pCREB) was over 100 nM. The “A2B/A2A Selectivity” value on human A2B AdoR was “a (greater than 1000)”.

Consider `Nc1nc2c(c(Cl)nn2CCN2CCN(c3cc(-c4ncco4)ccc3F)CC2)c2nc(-c3ccccn3)nn12`, for which, at human A2A AdoR, the 50% inhibitory concentration (IC50) was at most 20 nM. Further, the “A1/A2A Selectivity” value on A1AdoR was “c (greater than 0 but less than or equal to 100)”. Also, the EC50 with phospho-CREB (pCREB) lay in the range of 20 to 100 nM. Also, the “A2B/A2A Selectivity” value at human A2B AdoR is reported as “a (greater than 1000)”.

In the case of `CC#Cc1nc2c3cc(C#N)n(CCN4CCN(c5ccc(OCCOC)cc5)CC4)c3nc(N)n2n1`, the IC50 on human A2A AdoR is at most 20 nM. On A1AdoR, the “A1/A2A Selectivity” value was “a (greater than 1000)”. Further, the concentration for a half-maximal effect (EC50) in the test on phospho-CREB (pCREB) was over 100 nM. In addition, the “A2B/A2A Selectivity” value at human A2B AdoR was “a (greater than 1000)”.
